Tested on: B cell
Experiment: Cytotoxicity screening of chemical probes in isolated B cell assay. Data is normalized to DMSO control, the cell viability average of replicates are reported. Reduction of ATP level more than 20% indicate compromised cell health status.
Settings: human

| SMILES | Cell Viability (1 µM) [%] | Cell Viability (0.1 µM) [%] |
| --- | --- | --- |
| C[C@@H]1CN(c2cc(-c3n[nH]c4ccc(OC5(C)CC5)cc34)ncn2)C[C@H](C)O1 [MLi-2] | 96.3526 |  |
| O=C(O)[C@H]1[C@H](Cn2nnc3ccccc3c2=O)CC[C@@H]1C(=O)c1ccc(OCCC2CCOCC2)cc1 [BAY-7598] |  | 98.8077 |
| Cc1cnc(-c2cc(Cl)ccc2F)cc1-n1c(=O)n(CC(N)=O)c2cnccc21 [TP-008] | 103.993 |  |
| CCOCCn1cc(C(=O)Nc2ccc(-n3nc(-c4cccnc4)cc3C(F)(F)F)cn2)ccc1=O [BI 1935] | 94.8333 |  |
| Cl.O=C(O)c1cc(-c2ccc(C3CCNCC3)cc2)c2ccc(-c3ccc(C(F)(F)F)cc3)cc2c1 | 98.0873 |  |
| CC(C)(O)c1cncc(-c2nc3ccc(F)cc3n2C2CC2)c1 [MSD-CYP11B2] | 100.571 |  |
| COc1ccc(C(=O)N2CCN(C(=O)/C=C/c3ccc(Br)cc3)CC2)cc1 | 97.705 |  |
| Cc1cc2c(-c3ccco3)cnc(N[C@@H]3CCN(C)C[C@H]3C(=O)NC3CCCCC3)c2[nH]c1=O [GSK789] | 93.8199 |  |
| CC(=O)N1CCC(c2ccc(C(=O)NC(=N)N)cc2C(F)(F)F)CC1 [BI 9627] | 95.0864 |  |
| CC#C[C@@H](CC(=O)O)c1ccc(OCc2cccc(-c3ccc(C(F)(F)F)cc3)c2)cc1 | 93.0276 |  |
| Cc1c(NC(=O)c2cc(C(N)=O)nc3cc(F)ccc23)c(C(F)(F)F)nn1Cc1ccc(C#N)cc1 [BAY-876] | 101.62 |  |
| Cl.Cl.Cl.c1ccc(N2CCN(Cc3nc4ccccc4[nH]3)CC2)nc1 | 98.1024 |  |
| COCCOc1nc(-c2ccc(Cl)nc2)nc2c1CN(C(=O)c1ncn3ccccc13)CC2 [THPP-1] |  | 97.9791 |
| CN(C)C(=O)Cn1cc(-c2nc([C@@](C)(c3ccc(-c4cnc(N)nc4)cc3)C3CC3)no2)cn1 [BI 665915] |  | 103.286 |
| COc1cc2c(NC3CCN(C(C)C)CC3)nc(N3CCC(F)(F)CC3)nc2cc1OCCCN1CCCC1 | 98.4898 |  |
| CCCOc1ccn2c(C(C)=O)cc(-c3ccccc3S(C)(=O)=O)c2c1 | 98.3118 |  |
| Clc1cc2c(NC3CCCC3)nnc(-c3ccncc3)c2cc1Cl | 99.0979 |  |
| Cc1sc2c(c1C)C(c1ccc(Cl)cc1)=N[C@@H](CC(=O)OC(C)(C)C)c1nnc(C)n1-2 | 83.2653 |  |
| C=CC(=O)N1CCC[C@@H](n2nc(-c3ccc(Oc4ccccc4)cc3)c3c(N)ncnc32)C1 [IBRUTINIB] | 86.9807 |  |
| CCCc1cc(C)[nH]c(=O)c1CNC(=O)c1cc(-c2ccnc(N3CCN(C)CC3)c2)cc2c1cnn2C(C)C | 92.8371 |  |
| CC(=O)Nc1c(C(C)=O)c(=O)n(C)c2nc(-c3ccc(Cl)cc3Cl)c(-c3ccc(Cl)cc3)cc12 [NAPHTHYRIDINONE] | 96.2894 |  |
| CCC(=O)N[C@H]1CC[C@@H](C(=O)N(C)c2ccc(-c3nc4ccccc4o3)cc2)C1 [BI 99179] | 102.234 |  |
| O=C(N1CCS(=O)(=O)CC1)N1C[C@H](c2ccc(OC(F)(F)F)cc2)C[C@H](c2nc(C3CC3)no2)C1 [BAY-386] | 95.9614 |  |
| O=C(NCc1ccc(F)cc1)N1CCN2C(=O)OC(c3ccccc3)(c3ccccc3)C2C1 (centres undefined) | 104.95 |  |
| O=C(O)CNC(=O)c1c(O)c2ccccc2n(Cc2ccccc2)c1=O | 96.2966 |  |
| C[C@]12N[C@H](Cc3ccccc31)c1ccccc12 [DIZOCILPINE] | 102.296 |  |
| C[C@H]1CC(=O)Nc2cc(C(=O)NCCC3CC3)ccc2N1C(=O)N1CC2CC2C1 (some centres undefined) | 100.735 |  |

| SMILES | Cell Viability (1 µM) [%] | Cell Viability (0.1 µM) [%] |
| --- | --- | --- |
| Cl.Cl.NC1(c2ccc(-c3nc4ccn5c(=O)[nH]nc5c4cc3-c3ccccc3)cc2)CCC1 | 85.9288 |  |
| CC(C)NC(=O)N1CC[C@H](NC2=Nc3cc(F)ccc3N(CC(F)F)c3ccc(Cl)cc32)C1 | 98.1837 |  |
| COc1cccc(CNC(=O)c2nc3scc(COCc4ccc(C(=O)O)cc4)c3c(=O)[nH]2)c1 [T-26c] |  | 102.037 |
| CCCCC(=O)N(Cc1ccc(-c2ccccc2-c2nnn[nH]2)cc1)[C@H](C(=O)O)C(C)C | 103.145 |  |
| Nc1c(C(=O)NCc2ccc(C(=O)NCCCC3CCCCC3)cc2)cnn1-c1ccccc1 [SR-318] |  | 97.9561 |
| CCCn1c(=O)c2[nH]c(C3CCCC3)nc2n(CCC)c1=O [1,3-DIPROPYL-8-CYCLOPENTYLXANTHINE [DPCPX]] | 101.399 |  |
| COc1cc(C#N)ccc1S(=O)(=O)Nc1ccc2c(c1)cc(C)c(=O)n2C | 99.4263 |  |
| CC1=C(C#N)C(c2ccc3[nH]nc(C)c3c2)C(C#N)=C(C)N1 [BAY-474] | 96.499 |  |
| C[C@H]1CCCN1Cc1nc2cc(NC(=O)c3ccc4cnccc4c3)ccc2[nH]1 | 90.4338 |  |
| CNC(=O)Nc1ccc2c(c1)CC[C@@]21OC(=O)N(CC(=O)N(Cc2ccc(F)cc2)[C@@H](C)C(F)(F)F)C1=O [A-485] |  | 92.4439 |
| Cc1cc(C)cc([C@@H]2c3cc(C)ccc3NC(=O)CN2C(=O)c2ccc(Br)s2)c1 | 95.4438 |  |
| O=c1nc(-c2ccccn2)sc2ccccc12 [BTZO-1] | 96.3183 |  |
| O=S(=O)(NC1CCC(c2cc(F)ccc2F)(S(=O)(=O)c2ccc(Cl)cc2)CC1)C(F)(F)F (centres undefined) [MRK-560] |  | 103.093 |
| COc1cc2c(cc1NS(=O)(=O)c1ccc(Br)cc1C)n(C)c(=O)n2C | 96.0295 |  |
| CCCCN(Cc1ccccc1)C(=O)c1ccc(S(=O)(=O)Nc2ccccc2)cc1 | 99.9127 |  |
| COc1ccc2c(c1)O[C@@H](c1ccc(OC)c(OC)c1)C[C@H]2NC(=O)C1(c2ccc3c(c2)OC(F)(F)O3)CC1 [A-1596586] | 101.385 |  |
| CS(=O)(=O)N1CCCC(NC(=O)[C@H](CCC2CCCCC2)NC(=O)c2ccc(CNC(=O)c3cnc4ccccn34)cc2)C1 (some centres undefined) [SR-302] |  | 99.1038 |
| CC(=O)Nc1cccc(-n2c(=O)n(C3CC3)c(=O)c3c(Nc4ccc(I)cc4F)n(C)c(=O)c(C)c32)c1 [TRAMETINIB] | 85.5796 |  |
| Cc1ccc2nc(CNCCCOc3ccccc3)cc(O)c2c1 [UCSF924] | 96.7712 |  |
| COc1cc(C(=O)N(CCCc2ccccc2)Cc2ccc(CC(=O)O)cc2)cc(OC)c1C | 101.167 |  |
| COc1cc(-c2cn(C)c(=O)c3cnccc23)c(OC)cc1CN(C)C | 95.7323 |  |
| Cn1cc(CCn2cnc(-c3cnn(C)c3)c2-c2ccc(C#N)cc2)cn1 | 99.8514 |  |
| COc1ccccc1S(=O)(=O)Nc1ccc2c(c1)CN(C)C(=O)N2 | 94.2739 |  |
| CSc1cc2c(cc1C(F)(F)F)N(C(=O)Nc1cccnc1)CC2 | 99.9626 |  |
| Cc1nc(N2CC[C@H](O)C2)ncc1-c1cc(C(F)(F)F)cc2[nH]ncc12 | 99.9461 |  |
| COCc1nc2cnc3cc(-c4c(C)noc4C)c(OC[C@H]4CCNC4)cc3c2n1[C@H](C)c1ccccc1 [GSK778] | 95.4048 |  |
| CNCc1ccccc1-c1csc([C@@H](C)Nc2nc(C)nc3cc(OC)c(OC)cc23)c1 [BAY-293] | 78.8725 |  |

| SMILES | Cell Viability (1 µM) [%] | Cell Viability (0.1 µM) [%] |
| --- | --- | --- |
| COC(c1ccccc1)(c1ccccc1)[C@H](Oc1nc(C)cc(C)n1)C(=O)O [AMBRISENTAN] | 104.904 |  |
| CN(C)CC#Cc1ccc(OCCCc2sc(N3CCc4cccc(C(=O)Nc5nc6ccccc6s5)c4C3)nc2C(=O)O)c(F)c1 [A-1155463] | 88.7648 |  |
| Cc1cc(=O)n(C)c2cc(N3C(=O)CC[C@H](NS(=O)(=O)CC(C)C)[C@H]3c3ccc(Cl)cc3)ccc12 | 97.6321 |  |
| C[C@H](c1ccc(F)cc1)N(Cc1cccc(C(=O)O)c1)C(=O)c1cnc2ccccc2c1 [PF-05105679] | 99.1446 |  |
| Cc1c[nH]c2nccc(Oc3c(F)cc(Nc4cc(Cl)nc(N)n4)cc3F)c12 [BAY-549] |  | 99.4175 |
| COc1cc(C(=O)N2CC[C@@H](O)[C@@H](N)C2)cc2nc(-c3cc4ccccc4n3CC3CC3)n(C)c12.Cl | 96.5784 |  |
| Cn1cc(-c2ccc3occ(-c4cccc(-c5ccncc5)c4)c3n2)cn1 | 101.775 |  |
| COc1cc(Nc2nccc(-c3cnn4nc(OC)ccc34)n2)cc(C(F)(F)F)c1 | 93.0077 |  |
| O=C(NCC(=O)N1CCCC1)Nc1ccc2cnccc2c1 | 100.263 |  |
| Cc1cc(-n2nc(Cc3cc(F)cc(C(F)(F)F)c3)nc2C)ccc1C(N)=O [TP-024] | 100.697 |  |
| COc1ccc(CCc2nc3cc(-c4c(C)noc4C)ccc3n2C[C@H](C)N2CCOCC2)cc1Cl | 94.0053 |  |
| CCC(=O)Nc1cc(Nc2cc(NC3CC3)n3ncc(C#N)c3n2)ccc1C | 88.1167 |  |
| CCC(=O)N1CCOc2c(cc(-c3ccc(OC)c(OC)c3)cc2OCC2CCCN(C)C2)C1 (centres undefined) | 98.9735 |  |
| CCN(CC)S(=O)(=O)Nc1cccc(-c2ccc3c(NC(=O)C4CC4)n[nH]c3c2)c1 | 95.3727 |  |
| CCCOc1ccc([C@H]2[C@H](C(=O)O)[C@@H](c3ccc4c(c3)OCO4)CN2CC(=O)Nc2c(CC)cccc2CC)cc1 [A-192621] |  | 97.3784 |
| C[C@@H](NC(=O)Nc1cc2[nH]ncc2c(CO)n1)c1ccccc1 [ERKi] | 88.9841 |  |
| Cc1ccc2c(c1CCC(=O)O)CC[C@@H](NS(=O)(=O)c1ccc(Cl)cc1)C2 [TERUTROBAN] | 102.464 |  |
| Cn1cnc2c(F)c(Nc3ccc(Br)cc3Cl)c(C(=O)NOCCO)cc21 [SELUMETINIB] | 92.6054 |  |
| COc1ccccc1C(=O)Nc1cc2c(cc1N1CCNCC1C)n(C)c(=O)n2C (centres undefined) | 98.4804 |  |
| O=C(NCCN1CCOCC1)c1ccc2c(c1)C(=O)c1ccc(Nc3ccc(F)c(NC(=O)c4ccccc4)c3)cc1CC2 [FS-694] | 91.9931 |  |
| CC(=O)Nc1c(F)cc(C(=O)N[C@H]2CC[C@H](O)CC2)cc1O[C@@H](C)c1ccccc1 [GSK046] | 96.5866 |  |
| Cc1cc(OCCCS(C)(=O)=O)cc(C)c1-c1cccc(COc2ccc3c(c2)OC[C@H]3CC(=O)O)c1 | 101.968 |  |
| CC(=O)C1=C(C)N(c2cccc(C(F)(F)F)c2)C(=O)N[C@@H]1c1ccc(C#N)nc1 [BAY-678] | 97.287 |  |
| C[C@@H](c1cccc(CN)c1)n1cc(Cl)cc(C(N)=O)c1=N.Cl | 100.561 |  |
| CN(C)C(=O)/C(C#N)=C/c1ccc(-c2nc3cnc4[nH]ccc4c3n2C2CCCCC2)o1 | 89.3026 |  |

From ChEMBL document CHEMBL5724562, “Toxicity screen in isolated B cell assay results for EUbOPEN Chemogenomics Library” (2024)
